According to ChEMBL document CHEMBL5143508, “Design, synthesis and biological evaluation of novel o-aminobenzamide derivatives as potential anti-gastric cancer agents in vitro and in vivo” (Eur J Med Chem, 2022):
Calls of active or inactive are those of the source. No cut-off for these calls is given here.

Assays:
HGC-27 [1] = assay: Induction of cell cycle arrest in human HGC-27 cells assessed as downregulation of CDK2 expression incubated for 48 hrs by Western blot analysis; type: functional, cell-based; details: dose 0.1-8 µM
[2] = Half life in Sprague-Dawley rat at 100 mg/kg, po measured up to 24 hrs by LC-MS/MS analysis; type: ADME, organism-based; details: in vivo
HGC-27 [3] = assay: Anti-invasion activity against human HGC-27 cells assessed as inhibition of invasion incubated for 24 hrs by transwell invasion assay; type: functional, cell-based; details: dose 0.05-2 µM, DDE = dose-dependent effect
HGC-27 [4] = assay: Induction of morphological changes in human HGC-27 cells assessed as cytomembrane foaming incubated for 36 hrs by Giemsa staining based microscopic analysis; type: functional, cell-based; details: dose 0.1-8 µM
HGC-27 [5] = assay: Induction of morphological changes in human HGC-27 cells assessed as chromatin condensation incubated for 36 hrs by Giemsa staining based microscopic analysis; type: functional, cell-based; details: dose 0.1-8 µM
MGC-803 [6] = assay: Induction of morphological changes in human MGC-803 cells assessed as cytomembrane foaming incubated for 36 hrs by Giemsa staining based microscopic analysis; type: functional, cell-based; details: dose 2.5-20 µM
MGC-803 [7] = assay: Induction of morphological changes in human MGC-803 cells assessed as chromatin condensation incubated for 36 hrs by Giemsa staining based microscopic analysis; type: functional, cell-based; details: dose 2.5-20 µM
HGC-27 [8] = assay: Induction of apoptosis in human HGC-27 cells assessed as necrotic cells at 0.1 uM incubated for 48 hrs by annexin V FITC/propidium iodide staining based flow cytometry (reference value: 1.24 %); type: functional
HGC-27 [9] = assay: Induction of apoptosis in human HGC-27 cells assessed as viable cells at 1.6 uM incubated for 48 hrs by annexin V FITC/propidium iodide staining based flow cytometry (reference value: 93.0 %); type: functional; details: read-out: Activity
MGC-803 [10] = assay: Induction of apoptosis in human MGC-803 cells assessed as viable cells at 5 uM incubated for 48 hrs by annexin V FITC/propidium iodide staining based flow cytometry (reference value: 94.4 %); type: functional; details: read-out: Activity
MGC-803 [11] = assay: Induction of apoptosis in human MGC-803 cells assessed as early apoptotic cells at 5 uM incubated for 48 hrs by annexin V FITC/propidium iodide staining based flow cytometry (reference value: 0.42 %); type: functional
MGC-803 [12] = assay: Induction of apoptosis in human MGC-803 cells assessed as late apoptotic cells at 5 uM incubated for 48 hrs by annexin V FITC/propidium iodide staining based flow cytometry (reference value: 4.07 %); type: functional
MGC-803 [13] = assay: Induction of apoptosis in human MGC-803 cells assessed as necrotic cells at 5 uM incubated for 48 hrs by annexin V FITC/propidium iodide staining based flow cytometry (reference value: 1.06 %); type: functional
MGC-803 [14] = assay: Induction of apoptosis in human MGC-803 cells assessed as viable cells at 10 uM incubated for 48 hrs by annexin V FITC/propidium iodide staining based flow cytometry (reference value: 94.4 %); type: functional; details: read-out: Activity
MGC-803 [15] = assay: Induction of apoptosis in human MGC-803 cells assessed as early apoptotic cells at 10 uM incubated for 48 hrs by annexin V FITC/propidium iodide staining based flow cytometry (reference value: 0.42 %); type: functional
MGC-803 [16] = assay: Induction of apoptosis in human MGC-803 cells assessed as late apoptotic cells at 10 uM incubated for 48 hrs by annexin V FITC/propidium iodide staining based flow cytometry (reference value: 4.07 %); type: functional
MGC-803 [17] = assay: Induction of apoptosis in human MGC-803 cells assessed as necrotic cells at 10 uM incubated for 48 hrs by annexin V FITC/propidium iodide staining based flow cytometry (reference value: 1.06 %); type: functional
HGC-27 [18] = assay: Induction of cell cycle arrest in human HGC-27 cells assessed as reduction in accumulation of cells at G2/M phase at 0.1 to 1.6 uM incubated for 24 hrs by PI staining based flow cytometry analysis; type: functional; details: dose 0.1-1.6 µM
HGC-27 [19] = assay: Inhibition of cell migration in human HGC-27 cells measured after 24 hrs by wound healing assay; type: functional, cell-based; details: dose 0.05-2 µM, DDE = dose-dependent effect
MGC-803 [20] = assay: Inhibition of cell migration in human MGC-803 cells measured after 24 hrs by wound healing assay; type: functional, cell-based; details: dose 1.25-10 µM, DDE = dose-dependent effect
MGC-803 [21] = assay: Anti-invasion activity against human MGC-803 cells assessed as inhibition of invasion incubated for 24 hrs by transwell invasion assay; type: functional, cell-based; details: dose 1.25-10 µM, DDE = dose-dependent effect
[22] = Tmax in Sprague-Dawley rat at 100 mg/kg, po measured up to 24 hrs by LC-MS/MS analysis; type: ADME, organism-based; details: in vivo
[23] = Cmax in Sprague-Dawley rat at 100 mg/kg, po measured up to 24 hrs by LC-MS/MS analysis; type: ADME, organism-based; set-up: dose 100 mg/kg, time < 24 hrs, route po; details: in vivo
[24] = AUC (0 to t) in Sprague-Dawley rat at 100 mg/kg, po measured up to 24 hrs by LC-MS/MS analysis; type: ADME, organism-based; set-up: dose 100 mg/kg, time < 24 hrs, route po; details: in vivo
[25] = MRT (0 to t) in Sprague-Dawley rat at 100 mg/kg, po measured up to 24 hrs by LC-MS/MS analysis; type: ADME, organism-based; details: in vivo
[26] = Toxicity in BALB/c mouse xenografted with human HGC-27 cells assessed as RBC level at 150 mg/kg, po bid for 19 days; type: organism-based, Erythrocyte; details: in vivo, 456 h, time 19 day
[27] = Toxicity in BALB/c mouse xenografted with human HGC-27 cells assessed as platelet level at 150 mg/kg, po bid for 19 days; type: organism-based; details: in vivo, 456 h, time 19 day
[28] = Toxicity in BALB/c mouse xenografted with human HGC-27 cells assessed as red blood cell distribution width at 75 mg/kg, po bid for 19 days; type: organism-based; details: in vivo, 456 h, time 19 day
HGC-27 [29] = assay: Induction of apoptosis in human HGC-27 cells assessed as reduction in Bcl-2 level incubated for 48 hrs by Western blot analysis; type: functional, cell-based; details: dose 0.1-8 µM, DDE = dose-dependent effect
HGC-27 [30] = assay: Induction of apoptosis in human HGC-27 cells assessed as reduction in caspase-3 level incubated for 48 hrs by Western blot analysis; type: functional, cell-based; details: dose 0.1-8 µM, DDE = dose-dependent effect
HGC-27 [31] = assay: Induction of apoptosis in human HGC-27 cells assessed as reduction in caspase-9 level incubated for 48 hrs by Western blot analysis; type: functional, cell-based; details: dose 0.1-8 µM, DDE = dose-dependent effect
HGC-27 [32] = assay: Induction of apoptosis in human HGC-27 cells assessed as upregulation in Bax expression at 0.1 to 1.6 uM incubated for 48 hrs by Western blot analysis; type: functional, cell-based; details: dose 0.1-1.6 µM
HGC-27 [33] = assay: In vivo induction of apoptosis in human HGC-27 cells xenografted in BALB/c mouse assessed as increase in cleaved caspase-9 expression at 75 to 150 mg/kg , po bid administered for 19 days and measured by immunohistochemical analysis; type: functional, organism-based; details: dose 75-150 mg/kg, time 19.0 day
HGC-27 [34] = assay: Induction of cell cycle arrest in human HGC-27 cells assessed as downregulation of CDK1 expression incubated for 48 hrs by Western blot analysis; type: functional, cell-based; details: dose 0.1-8 µM
HGC-27 [35] = assay: Induction of cell cycle arrest in human HGC-27 cells assessed as downregulation of cyclin A expression incubated for 48 hrs by Western blot analysis; type: functional, cell-based; details: dose 0.1-8 µM
HGC-27 [36] = assay: Induction of cell cycle arrest in human HGC-27 cells assessed as downregulation of cyclin B1 expression incubated for 48 hrs by Western blot analysis; type: functional, cell-based; details: dose 0.1-8 µM
HGC-27 [37] = assay: Antiproliferative activity against human HGC-27 cells measured after 24 hrs by […]; type: functional, cell-based; details: HGC-27, 24 h
HGC-27 [38] = assay: Induction of cell cycle arrest in human HGC-27 cells assessed as reduction in accumulation of cells at S phase at 0.5 to 8 uM incubated for 24 hrs by PI staining based flow cytometry analysis; type: functional; details: dose 0.5-8 µM

Row | Compound | Activity (HGC-27 [1]) | half-life [2] [h] | Activity (HGC-27 [3]) | Activity (HGC-27 [4]) | Activity (HGC-27 [5]) | Activity (MGC-803 [6]) | Activity (MGC-803 [7]) | viability at 5 µM (MGC-803 [10]) [%] | Activity (MGC-803 [11]) [%] | Activity (MGC-803 [12]) [%] | Activity (MGC-803 [13]) [%] | viability at 10 µM (MGC-803 [14]) [%] | Activity (MGC-803 [15]) [%] | Activity (MGC-803 [16]) [%] | Activity (MGC-803 [17]) [%] | inhibition (HGC-27 [19]) | inhibition (MGC-803 [20]) | Activity (MGC-803 [21]) | Tmax [22] [h] | Cmax [23] [ng/mL] | further results
1 | O=C(NCc1ccc(NC(=O)c2cc(F)ccc2N2CCCC2)cc1)OCc1cccnc1 | Active | 2.5 | Dde | Active | Active | Active | Active | 81.1 | 3.23 | 10.4 | 5.22 | 82 | 7.31 | 8.86 | 1.84 | Dde | Dde | Dde | 1.2 | 3980 | Activity (HGC-27 [8]): 0.86%; viability at 1.6 µM (HGC-27 [9]): 13.4%; Activity (HGC-27 [18]): Active; AUC(0-t) at 24 h [24]: 7310 ng·h/mL; MRT last at 24 h [25]: 4.25 h; Activity [26]: 10.34 10^12/L; Activity [27]: 1711 10^9/L; Activity [28]: 24.4%; Activity (HGC-27 [29]): Dde; Activity (HGC-27 [30]): Dde; Activity (HGC-27 [31]): Dde; Activity (HGC-27 [32]): Active; Activity (HGC-27 [33]): Active; Activity (HGC-27 [34]): Active; Activity (HGC-27 [35]): Active; Activity (HGC-27 [36]): Active; IC50 (HGC-27 [37]): 280 nM
2 | O=C(NCc1ccc(NC(=O)c2ccccc2N2CCCC2)cc1)OCc1cccnc1 | Active | 1.56 | Dde | Active | Active | Active | Active | 65 | 15.5 | 17 | 2.47 | 59.4 | 19.1 | 18.2 | 3.27 | Dde | Dde | Dde | 0.5 | 4090 | Activity (HGC-27 [38]): Active; AUC(0-t) at 24 h [24]: 4720 ng·h/mL; MRT last at 24 h [25]: 1.88 h; Activity (HGC-27 [29]): Dde; Activity (HGC-27 [30]): Dde; Activity (HGC-27 [31]): Dde; Activity (HGC-27 [34]): Active; Activity (HGC-27 [35]): Active; Activity (HGC-27 [36]): Active; IC50 (HGC-27 [37]): 1840 nM
